Patent US12421179B2, “Production method for radiolabeled aryl compound” (OSAKA UNIVERSITY, priority 2017, dated 2025)

How the values were obtained:
[1] = test system: C6 glioma cell derived from rat; assay: Glioma cell uptake experiment; assay type: cell-based; details: for cell uptake reduced by LAT1 inhibitor (BCH) to fraction of uptake: 100 mM BCH addition group; for cell uptake reduced by competitive inhibitor (Phe) to fraction of uptake: 1% Phe addition group; for specificity of cell uptake (via LAT1): concluded from Phe and BCH inhibition; for cell uptake (amount of radioactivity taken up intracellularly): inhibitor-free group, amino acid-free HBSS medium
Procedure: The concentration of the 4-211At-L-phenylalanine (4-^211At-Phe) solution prepared in Example 2 and the 3-^211At-D,L-phenylalanine (3-^211At-Phe) solution prepared in Example 7 were each adjusted to 5 MBq/2 mg·ml. C6 glioma cell derived from rat was seeded on each well of 24-well plate by 5×10^5 cells/well, is and the cells were used in the next day's experiment (cell number: about 1×10^6 cells/well). Before the experiment, the medium was replaced with an amino acid-free HBSS medium (0.5 ml/well). 4-^211At-Phe or 3-^211At-Phe was added to each well of the plate by 10 μl, and the wells were divided into three groups of inhibitor-free group, 1% Phe addition group (competitive inhibitor) and 100 mM BCH addition group (LAT1 inhibitor), and incubated at 37° C. for 30 minutes or 60 minutes. After the incubation, the culture solution was removed, and the cells were washed with PBS, and lysed, and the amount of radioactivity taken up intracellularly was measured. […] Moreover, the cell uptake after 60 minutes was reduced, compared to that after 30 minutes. The competitive inhibitor (Phe) reduced the cell uptake of 4-^211At-Phe and 3-^211At-Phe to ½ to ⅓, and LAT1 inhibitor (BCH) reduced the cell uptake of 4-^211At-Phe and 3-^211At-Phe to ¼ to ⅛. […] Especially, the cell uptake of 3-^211At-Phe was more than that of 4-^211At-Phe, and therefore, 3-211At-Phe can be further expected for the above-mentioned application.

[2] = test system: C6 glioma tumor; assay: SPECT imaging of C6 glioma-transplanted rat; assay type: in vivo; details: 1 MBq, tail vein; 30 minutes and 3 hours after administration; tumor in both flanks
Procedure: The 4-^211At-L-phenylalanine (4-^211At-Phe) (1 MBq) prepared in Example 2 was administered to the tail vein of the glioma-transplanted rat, and the rat was imaged by SPECT camera (E-cam, Siemens). In both images, the is accumulation of 4-^211At-Phe in the tumor (both flanks, indicated by arrows in the figure) was observed. Therefore, 4-^211At-Phe can be expected to be applied to RI internal therapy or diagnosis for cancer.

Compound | cell uptake reduced by LAT1 inhibitor (BCH) to fraction of uptake [1] | cell uptake reduced by competitive inhibitor (Phe) to fraction of uptake [1] | cell uptake after 60 minutes compared to that after 30 minutes ([1]; C6 glioma cells, 37° C.) | cell uptake compared with 4-^211At-Phe ([1]; C6 glioma cells, 37° C., 30 or 60 minutes) | specificity of cell uptake (via LAT1) [1] | cell uptake (amount of radioactivity taken up intracellularly) ([1]; 37° C., 30 or 60 minutes) | uptake by cancer cells (general statement) ([1]; summary statement in the description) | accumulation in the tumor (SPECT images) [2]
NC(Cc1cccc([211At])c1)C(=O)O (racemic) [3-^211At-Phe, 3-^211At-D,L-phenylalanine] | ¼ to ⅛ | ½ to ⅓ | reduced | slightly more than that of 4-^211At-Phe | specifically taken up by the cells via LAT1 | taken up by the cell | taken up in large amounts by cancer cells | 
N[C@@H](Cc1ccc([211At])cc1)C(=O)O [4-^211At-Phe, 4-^211At-L-phenylalanine] | ¼ to ⅛ | ½ to ⅓ | reduced |  | specifically taken up by the cells via LAT1 | taken up by the cell |  | observed
